Reference: patent US8518997B2, “4-(phenoxyalkyl)thio)-phenoxyacetic acids and analogs” (Janssen Pharmaceutica N.V., priority 2003, dated 2013)
Several values for one entry are separate records, joined by “and”; a condition that tells them apart may be missing. Equal entries are not always repeated.

Key:
[1] = test system: differentiated THP-1 monocytes; settings: cited from earlier work
PPAR delta = biological target: T1, PPAR delta (Homo sapiens, UniProt Q03181); experiment: Transfection assay for PPAR receptors (PPAR-Gal4 / Gal4-Luciferase reporter in HEK293 cells); format: cell-based; settings: HEK293 cells co-transfected with PPAR-Gal4 (δ) receptor and Gal4-Luciferase reporter, 24 hours; multiple EC50's = multiple measurements; Table 2
T1 sequence (Q03181 171-441 limits assumed): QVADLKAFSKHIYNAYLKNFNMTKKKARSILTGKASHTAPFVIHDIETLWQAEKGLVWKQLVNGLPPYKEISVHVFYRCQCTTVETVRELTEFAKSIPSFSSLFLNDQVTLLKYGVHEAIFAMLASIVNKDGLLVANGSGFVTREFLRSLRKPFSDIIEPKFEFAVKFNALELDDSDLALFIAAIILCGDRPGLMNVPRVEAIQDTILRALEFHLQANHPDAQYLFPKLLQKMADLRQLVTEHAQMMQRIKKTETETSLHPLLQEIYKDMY
Protocol: Transfection Assay Method for PPAR Receptors
HEK293 cells were grown in DMEM/F-12 Media supplemented with 10% FBS and glutamine (GIBCOBRL). The cells were co-transfected with DNA for PPAR-Gal4 (PPARα, γ or δ) receptor and Gal4-Luciferase Reporter using the DMRIE-C Reagent. On the following day, the medium was replaced with 5% Charcoal treated FBS growth medium. After six hours, cells were trypsinized and seeded at a density of 50,000 cell/well into 96 well plates and incubated overnight at 37° C. in a 5% CO2 incubator. Cells were then treated with test compounds or vehicle and incubated for 24 hours at 37° C. in a 5% CO2 incubator. Luciferase activity was assayed using the Steady-Glo Luciferase Assay Kit from Promega. […] Steady-Glo Luciferase Assay Kit was purchased from Promega Part# E254B.

Row | EC50 (PPAR delta) | SMILES | ABCA1 mRNA expression [1] | cholesterol efflux [1]
1 | – | Cc1cc(SCc2sc(-c3ccc(C(F)(F)F)cc3)nc2C)ccc1OCC(=O)O [GW501516] | induced | enhanced
2 | 39.3 nM and 43.7 nM | Cc1cc(SCC/C=C/c2ccc(C(F)(F)F)cc2)ccc1OCC(=O)O [Compound 40, {2-Methyl-4-[4-(4-trifluoromethyl-phenyl)-but-3-enylsulfanyl]-phenoxy}-acetic acid] | – | –
3 | 22.4 nM and 27.5 nM | CCO[C@@H](COc1ccc(C(F)(F)F)cc1)CSc1ccc(OCC(=O)O)c(C)c1 [Compound 16, (S)-{4-[2-Ethoxy-3-(4-trifluoromethyl-phenoxy)-propylsulfanyl]-2-methyl-phenoxy}-acetic acid] | – | –
